We go through two molecules from publication PMC11079024, “Identification of a family of species-selective complex I inhibitors as potential anthelmintics” (Nature Communications, 2024).

Assay [1] deals with C. elegans (N2) complex I (NADH:ubiquinone oxidoreductase) (Caenorhabditis elegans, UniProt P24887+Q93873+Q94360). As to the kind of experiment: biochemical. To be noted: for Log IC50 C. elegans complex I: log10 of IC50 in µM, C. elegans mitochondria. It counts as biochemical. A digest of the protocol: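 Activity expressed as percent of solvent control. Complex I rate came from DCIP reduction at 600 nm (initial linear slope, 15 min) with NADH and decylubiquinone as substrates, plus antimycin A and KCN, in pH 7.5 KPi/BSA buffer. Isolated, thrice freeze-thawed mitochondria used at 0.2 mg/mL.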
C. elegans (N2) complex I (NADH:ubiquinone oxidoreductase), sequence (Q94360 17-199): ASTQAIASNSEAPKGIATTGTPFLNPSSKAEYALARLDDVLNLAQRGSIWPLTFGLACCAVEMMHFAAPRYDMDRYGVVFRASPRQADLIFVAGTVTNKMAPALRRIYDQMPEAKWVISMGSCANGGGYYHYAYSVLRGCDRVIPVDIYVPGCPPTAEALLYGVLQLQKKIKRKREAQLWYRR
C. elegans (N2) complex I (NADH:ubiquinone oxidoreductase), sequence (P24887 whole entry): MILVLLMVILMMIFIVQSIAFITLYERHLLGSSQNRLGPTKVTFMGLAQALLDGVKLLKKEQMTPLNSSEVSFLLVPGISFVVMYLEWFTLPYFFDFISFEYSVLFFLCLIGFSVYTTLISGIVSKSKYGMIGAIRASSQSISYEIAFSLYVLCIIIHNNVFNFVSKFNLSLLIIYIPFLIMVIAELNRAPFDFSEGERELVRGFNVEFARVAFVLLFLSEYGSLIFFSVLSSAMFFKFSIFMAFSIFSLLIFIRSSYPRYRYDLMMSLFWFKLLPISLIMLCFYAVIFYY
C. elegans (N2) complex I (NADH:ubiquinone oxidoreductase), sequence (Q93873 31-482): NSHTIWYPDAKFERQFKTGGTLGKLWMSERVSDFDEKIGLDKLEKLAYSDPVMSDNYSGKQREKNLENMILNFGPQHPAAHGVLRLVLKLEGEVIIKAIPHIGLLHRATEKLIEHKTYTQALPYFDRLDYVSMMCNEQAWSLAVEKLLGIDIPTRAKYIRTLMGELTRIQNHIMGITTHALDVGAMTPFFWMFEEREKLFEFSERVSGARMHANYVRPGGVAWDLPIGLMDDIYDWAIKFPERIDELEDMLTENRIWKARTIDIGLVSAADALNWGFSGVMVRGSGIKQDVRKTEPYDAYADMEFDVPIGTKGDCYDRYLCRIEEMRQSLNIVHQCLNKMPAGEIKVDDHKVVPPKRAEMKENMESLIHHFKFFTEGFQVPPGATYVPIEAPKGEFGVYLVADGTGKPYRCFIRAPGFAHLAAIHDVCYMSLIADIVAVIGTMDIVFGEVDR

Assay [2] has as its target B. taurus (heart) complex I (Bos taurus, UniProt P03887+P17694+P42026). Nature of the assay: biochemical. It counts as biochemical. To be noted: for IC50: B. taurus heart mitochondria, read-out: B. taurus Complex I IC50; for Log IC50 B. taurus complex I: log10 of IC50 in µM, B. taurus mitochondria. A digest of the protocol:
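Complex I activity followed as DCIP reduction (600 nm, 30 s reads, 15 min) with 80 μM NADH and 60 μM decylubiquinone in 25 mM KPi pH 7.5 containing 2 μM antimycin A and 2 mM KCN. Freeze-thawed mouse or bovine heart mitochondria at 0.2 mg/mL; initial-rate percent of solvent control, single-point 100 μM or dose-response.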

Setting [3] is: in vitro complex I dose response on C. elegans mitochondria, average of at least two biological replicates, fit in R (DRC), read-out: IC50 C. elegans complex I.
Setting [4] is: wild-type C. elegans mitochondria, read-out: C. elegans Complex I IC50.

Where two headings read alike, the source gives them in different places.

B. taurus (heart) complex I, sequence (P03887 whole entry): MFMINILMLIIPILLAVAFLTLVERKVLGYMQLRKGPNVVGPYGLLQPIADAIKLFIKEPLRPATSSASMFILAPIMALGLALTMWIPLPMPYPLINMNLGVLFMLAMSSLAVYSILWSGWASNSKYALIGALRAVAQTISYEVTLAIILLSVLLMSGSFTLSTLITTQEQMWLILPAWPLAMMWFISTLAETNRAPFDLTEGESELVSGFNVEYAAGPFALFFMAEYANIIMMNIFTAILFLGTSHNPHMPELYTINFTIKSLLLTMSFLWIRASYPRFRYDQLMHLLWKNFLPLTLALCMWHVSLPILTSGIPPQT
B. taurus (heart) complex I, sequence (P17694 34-463): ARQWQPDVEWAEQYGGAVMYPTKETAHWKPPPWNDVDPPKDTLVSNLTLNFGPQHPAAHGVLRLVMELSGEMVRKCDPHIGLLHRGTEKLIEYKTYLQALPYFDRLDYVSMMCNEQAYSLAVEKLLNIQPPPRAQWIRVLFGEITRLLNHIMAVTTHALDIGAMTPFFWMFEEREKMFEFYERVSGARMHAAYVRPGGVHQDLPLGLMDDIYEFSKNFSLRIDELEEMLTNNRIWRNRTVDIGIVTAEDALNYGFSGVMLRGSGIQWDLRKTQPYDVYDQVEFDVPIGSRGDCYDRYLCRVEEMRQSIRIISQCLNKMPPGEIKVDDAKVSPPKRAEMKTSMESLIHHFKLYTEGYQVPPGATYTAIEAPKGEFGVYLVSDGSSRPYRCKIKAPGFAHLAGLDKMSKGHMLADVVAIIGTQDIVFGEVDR
B. taurus (heart) complex I, sequence (P42026 38-216): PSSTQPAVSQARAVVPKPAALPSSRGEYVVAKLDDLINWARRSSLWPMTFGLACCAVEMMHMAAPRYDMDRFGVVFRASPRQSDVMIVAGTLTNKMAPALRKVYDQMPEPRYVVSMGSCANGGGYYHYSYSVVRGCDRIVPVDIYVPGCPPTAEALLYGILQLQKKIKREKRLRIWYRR

Usually IC50 stands for the concentration at which inhibition is half-maximal. As to `CC(C)Cc1ccc(C(C)c2nc3ccccc3n2C(C)C)cc1` (stereo not shown) [STK951903], the IC50 is 4.2 µM in assay [1] (setting [3]); 4.2 µM in assay [1] (wild-type (N2) mitochondria, read-out: C. elegans Complex I IC50); 4.2 µM in assay [1] (setting [4]); 14.7 µM in assay [2]. Moreover, the “Log IC50 C. elegans complex I” value in assay [1] came to 0.62 µM. Also, the “Log IC50 B. taurus complex I” value in assay [2] worked out at 1.17 µM.

Turning to `Clc1ccc(OCCn2cnc3ccccc32)c(Cl)c1` [Compound 7221649], the activity at 0.0001 µM in assay [1] (Dose 0.0001 µM, read-out: C. elegans mitochondrial complex I activity) worked out at 92.4%; in assay [2] (Dose 0.0001 µM, read-out: B. taurus mitochondrial complex I activity), 92.5%. For the same molecule, the activity at 0.0005 µM in assay [1] (Dose 0.0005 µM, read-out: C. elegans mitochondrial complex I activity) is 97.1%; in assay [2] (Dose 0.0005 µM, read-out: B. taurus mitochondrial complex I activity), 88.5%. Besides, the activity at 0.001 µM came out at 98.6% in assay [1] (Dose 0.001 µM, read-out: C. elegans mitochondrial complex I activity) and 89.7% in assay [2] (Dose 0.001 µM, read-out: B. taurus mitochondrial complex I activity). Besides, the activity at 0.0025 µM in assay [1] (Dose 0.0025 µM, read-out: C. elegans mitochondrial complex I activity) worked out at 106%; in assay [2] (Dose 0.0025 µM, read-out: B. taurus mitochondrial complex I activity), 97.8%. In addition, the activity at 0.005 µM in assay [1] (Dose 0.005 µM, read-out: C. elegans mitochondrial complex I activity) came out at 107%; in assay [2] (Dose 0.005 µM, read-out: B. taurus mitochondrial complex I activity), 98.8%. For the same molecule, the activity at 0.013 µM in assay [1] (Dose 0.013 µM, read-out: C. elegans mitochondrial complex I activity) was found to be 101%; in assay [2] (Dose 0.013 µM, read-out: B. taurus mitochondrial complex I activity) it was 94.3%. The activity at 0.025 µM in assay [1] (Dose 0.025 µM, read-out: C. elegans mitochondrial complex I activity) came to 101%; in assay [2] (Dose 0.025 µM, read-out: B. taurus mitochondrial complex I activity) it was 92%. Moreover, the activity at 0.063 µM in assay [1] (Dose 0.063 µM, read-out: C. elegans mitochondrial complex I activity) was determined as 94.8%; in assay [2] (Dose 0.063 µM, read-out: B. taurus mitochondrial complex I activity), 90.2%. In addition, the activity at 0.125 µM in assay [1] (Dose 0.125 µM, read-out: C. elegans mitochondrial complex I activity) came to 93.4%; in assay [2] (Dose 0.125 µM, read-out: B. taurus mitochondrial complex I activity) it was 86.5%. Also, the activity at 0.313 µM in assay [1] (Dose 0.313 µM, read-out: C. elegans mitochondrial complex I activity) amounted to 89.3%; in assay [2] (Dose 0.313 µM, read-out: B. taurus mitochondrial complex I activity), 88%. For the same molecule, the activity at 0.625 µM in assay [1] (Dose 0.625 µM, read-out: C. elegans mitochondrial complex I activity) worked out at 84.8%; in assay [2] (Dose 0.625 µM, read-out: B. taurus mitochondrial complex I activity), 83.9%. Further, the activity at 1.5 µM in assay [1] (Dose 1.5 µM, read-out: C. elegans mitochondrial complex I activity) is 71.9%; in assay [2] (Dose 1.5 µM, read-out: B. taurus mitochondrial complex I activity) it was 85.6%. Moreover, the activity at 3 µM in assay [1] (Dose 3 µM, read-out: C. elegans mitochondrial complex I activity) stood at 58.5%; in assay [2] (Dose 3 µM, read-out: B. taurus mitochondrial complex I activity), 77.8%. For the same molecule, the activity at 15 µM is 22.2% in assay [1] (Dose 15 µM, read-out: C. elegans mitochondrial complex I activity) and 33% in assay [2] (Dose 15 µM, read-out: B. taurus mitochondrial complex I activity). Further, the activity at 37.5 µM in assay [1] (Dose 37.5 µM, read-out: C. elegans mitochondrial complex I activity) was found to be 11.4%; in assay [2] (Dose 37.5 µM, read-out: B. taurus mitochondrial complex I activity), 7.81%. Further, the activity at 75 µM was determined as 6.54% in assay [1] (Dose 75 µM, read-out: C. elegans mitochondrial complex I activity) and 3.92% in assay [2] (Dose 75 µM, read-out: B. taurus mitochondrial complex I activity). For the same molecule, the IC50 amounted to 4.19 µM in assay [1] (setting [3]), 4.19 µM in assay [1] (setting [4]) and 10.7 µM in assay [2]. In assay [1], the “Log IC50 C. elegans complex I” value is reported as 0.62 µM. For the same molecule, the “Log IC50 B. taurus complex I” value in assay [2] is given as 1.03 µM.
